Measured values as given in PubChem BioAssay (NCI).
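Cells were grown in 96-well plates and exposed to each compound for 48 hours at five concentrations; endpoints were interpolated linearly between bracketing concentrations, or set to the highest concentration if not reached. GI50: concentration for 50% inhibition of growth. TGI is the concentration that stops growth completely.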 Active and inactive are the calls of the source. Cut-off read from the data, not from the text of the source: active = GI50 below about 0.43 µM; inactive = the rest.

Columns and labels:
Assay in all cases: NCI anticancer screen, dose series, 48 h
HCT-15 colon = system: HCT-15 colon
DU-145 prostate = system: DU-145 prostate
ACHN renal = system: ACHN renal
NCI-H522 lung = system: NCI-H522 lung
SF-268 CNS = system: SF-268 CNS
SNB-75 CNS = system: SNB-75 CNS
CCRF-CEM leukemia = system: CCRF-CEM leukemia
A498 renal = system: A498 renal
U251 CNS = system: U251 CNS
EKVX NSCLC = system: EKVX NSCLC
K-562 leukemia = system: K-562 leukemia
SW-620 colon = system: SW-620 colon
HL-60(TB) leukemia = system: HL-60(TB) leukemia
RXF 393 renal = system: RXF 393 renal
LOX IMVI melanoma = system: LOX IMVI melanoma
SK-MEL-5 melanoma = system: SK-MEL-5 melanoma
786-0 renal = system: 786-0 renal
NCI-H460 lung = system: NCI-H460 lung
UACC-257 melanoma = system: UACC-257 melanoma
HCT-116 colon = system: HCT-116 colon
MOLT-4 leukemia = system: MOLT-4 leukemia
MCF7 breast = system: MCF7 breast
MDA-MB-231 breast = system: MDA-MB-231 breast
NCI-H226 lung = system: NCI-H226 lung
SK-OV-3 ovarian = system: SK-OV-3 ovarian
MDA-MB-435 = system: MDA-MB-435
UO-31 renal = system: UO-31 renal
HOP-92 NSCLC = system: HOP-92 NSCLC
T-47D breast = system: T-47D breast
UACC-62 melanoma = system: UACC-62 melanoma
SK-MEL-2 melanoma = system: SK-MEL-2 melanoma
M14 melanoma = system: M14 melanoma
SN12C renal = system: SN12C renal
SNB-19 CNS = system: SNB-19 CNS
NCI/ADR-RES ovarian = system: NCI/ADR-RES ovarian
HOP-62 NSCLC = system: HOP-62 NSCLC
TK-10 renal = system: TK-10 renal
MALME-3M melanoma = system: MALME-3M melanoma
HS 578T breast = system: HS 578T breast
KM12 colon = system: KM12 colon
HT29 colon = system: HT29 colon
SK-MEL-28 melanoma = system: SK-MEL-28 melanoma
IGROV1 ovarian = system: IGROV1 ovarian
SF-539 CNS = system: SF-539 CNS
NCI-H23 lung = system: NCI-H23 lung
OVCAR-8 ovarian = system: OVCAR-8 ovarian
PC-3 prostate = system: PC-3 prostate
A549 NSCLC = system: A549 NSCLC
SF-295 CNS = system: SF-295 CNS
COLO 205 colon = system: COLO 205 colon
OVCAR-5 ovarian = system: OVCAR-5 ovarian
MDA-N = system: MDA-N
OVCAR-4 ovarian = system: OVCAR-4 ovarian

O=C(O)CN1CCN(CC(=O)O)CCN(CC(=O)O)CC1
GI50 (HCT-15 colon): 9.44 mM | outcome (DU-145 prostate): inactive | outcome (ACHN renal): inactive | GI50 (NCI-H522 lung): 8.06 mM | TGI (NCI-H522 lung): > 0.0708 mM | outcome (SF-268 CNS): inactive | outcome (SNB-75 CNS): inactive | TGI (CCRF-CEM leukemia): > 0.059 mM | outcome (CCRF-CEM leukemia): inactive | TGI (A498 renal): > 0.0758 mM | outcome (A498 renal): inactive | outcome (U251 CNS): inactive | outcome (EKVX NSCLC): inactive | TGI (K-562 leukemia): > 0.0219 mM | outcome (SW-620 colon): inactive | TGI (HL-60(TB) leukemia): 0.00474 mM | GI50 (RXF 393 renal): 9.94 mM | outcome (LOX IMVI melanoma): inactive | GI50 (SK-MEL-5 melanoma): 6.79 mM | TGI (SK-MEL-5 melanoma): > 0.0232 mM | outcome (786-0 renal): inactive | GI50 (NCI-H460 lung): 4.56 mM | GI50 (UACC-257 melanoma): 71.5 mM | GI50 (HCT-116 colon): 6.75 mM | outcome (MOLT-4 leukemia): inactive | GI50 (MCF7 breast): 6.36 mM | outcome (MDA-MB-231 breast): inactive | outcome (NCI-H226 lung): inactive | outcome (SK-OV-3 ovarian): inactive | outcome (MDA-MB-435): inactive | outcome (UO-31 renal): inactive | outcome (HOP-92 NSCLC): inactive | outcome (T-47D breast): inactive | GI50 (UACC-62 melanoma): 8.7 mM | GI50 (SK-MEL-2 melanoma): 16.7 mM | GI50 (M14 melanoma): 10.5 mM | outcome (SN12C renal): inactive | outcome (SNB-19 CNS): inactive | TGI (NCI/ADR-RES ovarian): > 0.0309 mM | outcome (NCI/ADR-RES ovarian): inactive | outcome (HOP-62 NSCLC): inactive | GI50 (TK-10 renal): 33.1 mM | outcome (MALME-3M melanoma): inactive | outcome (HS 578T breast): inactive | GI50 (KM12 colon): 5.45 mM | GI50 (HT29 colon): 4.4 mM | outcome (SK-MEL-28 melanoma): inactive | GI50 (IGROV1 ovarian): 7.1 mM | outcome (SF-539 CNS): inactive | GI50 (NCI-H23 lung): 76.1 mM | GI50 (OVCAR-8 ovarian): 22.3 mM | TGI (OVCAR-8 ovarian): > 0.0241 mM | GI50 (PC-3 prostate): 9.04 mM | GI50 (A549 NSCLC): 3.55 mM | TGI (A549 NSCLC): > 0.0254 mM | outcome (SF-295 CNS): inactive | GI50 (COLO 205 colon): 4.77 mM | TGI (COLO 205 colon): 0.00969 mM | outcome (OVCAR-5 ovarian): inactive | GI50 (MDA-N): 18.5 mM | outcome (OVCAR-4 ovarian): inactive
